Experimental findings from patent US20100004292A1, “Iminooxazolidine Derivatives and Their Use” (Bayer HealthCare AG, priority 2005, published 2010) are described below.

Molecules are shown by their SMILES.

Sequence of human factor Xa (FXa) (P00742 235-488 limits assumed): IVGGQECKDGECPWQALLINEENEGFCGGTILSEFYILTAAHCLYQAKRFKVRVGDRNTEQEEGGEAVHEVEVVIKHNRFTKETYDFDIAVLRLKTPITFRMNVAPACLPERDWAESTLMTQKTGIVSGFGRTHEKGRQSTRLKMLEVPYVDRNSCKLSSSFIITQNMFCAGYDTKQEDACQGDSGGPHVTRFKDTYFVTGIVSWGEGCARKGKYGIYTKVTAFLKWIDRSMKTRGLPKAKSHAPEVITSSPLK
Sequence of human factor Xa (FXa) (P00742 41-179 partner limits assumed): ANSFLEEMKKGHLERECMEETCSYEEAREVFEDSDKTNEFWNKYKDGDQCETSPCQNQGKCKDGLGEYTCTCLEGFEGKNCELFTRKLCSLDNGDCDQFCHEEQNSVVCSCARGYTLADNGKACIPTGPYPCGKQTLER

The experiment has as its target human factor Xa (FXa) (Homo sapiens, UniProt P00742). In words: Determination of the factor Xa inhibition (chromogenic substrate). The class given is biochemical. The conditions noted are these: human FXa 0.5 nmol/l, 150 μmol/l Pefachrome FXa, 25° C., pH 8.3. The method, then: The enzymatic activity of human factor Xa (FXa) is measured using the conversion of a chromogenic substrate specific for FXa. Factor Xa cleaves p-nitroaniline from the chromogenic substrate. The determinations are carried out in microtiter plates as follows:
The test substances, in various concentrations, are dissolved in DMSO and incubated for 10 minutes at 25° C. with human FXa (0.5 nmol/l dissolved in 50 mmol/l of Tris buffer [C,C,C-tris(hydroxymethyl)aminomethane], 150 mmol/l of NaCl, 0.1% BSA [bovine serum albumin], pH=8.3). Pure DMSO is used as control. The chromogenic substrate (150 μmol/l Pefachrome® FXa from Pentapharm) is then added. After an incubation time of 20 minutes at 25° C., the extinction at 405 nm is determined.
On to `N=C1OCCN1c1ccc(NC(=O)c2ccc(C(F)(F)F)cc2NC(=O)c2ccc(Cl)s2)cc1` [Example 3, 5-Chloro-N-[2-({[4-(2-imino-1,3-oxazolidin-3-yl)phenyl]amino}carbonyl)-5-(trifluoromethyl)-phenyl]thiophene-2-carboxamide methanesulfonate], for which the midpoint of inhibition, the IC50, lay at 1.1 nM. That is a single-digit nanomolar value. The figure for `N=C1OCCN1c1ccc(NC(=O)c2ccncc2NC(=O)c2ccc(Cl)s2)cc1` [Example 11, 3-{[(5-Chloro-2-thienyl)carbonyl]amino}-N-[4-(2-imino-1,3-oxazolidin-3-yl)phenyl]isonicotinamide methanesulfonate] is 6.3 nM. The figure for `N=C1OCCN1c1ccc(NC(=O)c2cscc2NC(=O)c2ccc(Cl)s2)cc1` [Example 16, 5-Chloro-N-[4-({[4-(2-imino-1,3-oxazolidin-3-yl)phenyl]amino}carbonyl)-3-thienyl]thiophene-2-carboxamide methanesulfonate] is 2.2 nM; for `Cc1cc(NC(=O)c2ccc(Cl)s2)c(C(=O)Nc2ccc(N3CCOC3=N)cc2)cc1N(C)C` [Example 20, 5-Chloro-N-[4-(dimethylamino)-2-({[4-(2-imino-1,3-oxazolidin-3-yl)phenyl]amino}carbonyl)-5-methylphenyl]thiophene-2-carboxamide methanesulfonate] it is 0.66 nM; for `CSc1nc(NC(=O)c2ccc(Cl)s2)c(C(=O)Nc2ccc(N3CCOC3=N)cc2)s1` [Example 24, 4-{[(5-Chloro-2-thienyl)carbonyl]amino}-N-[4-(2-imino-1,3-oxazolidin-3-yl)phenyl]-2-(methyl-thio)-1,3-thiazole-5-carboxamide methanesulfonate] it is 0.91 nM.

By IC50 is commonly meant the point on the concentration scale where inhibition reaches its midpoint.
